Results taken from ChEMBL document CHEMBL1134209, “Syntheses and evaluation of pyrido[2,3-dlpyrimidine-2,4-diones as PDE 4 inhibitors” (Bioorg Med Chem Lett, 2001).

Molecular target: Phosphodiesterase 4 (Rattus norvegicus, UniProt P14270+P14646+P14644+P54748)
Assay: Inhibition of phosphodiesterase 4 from rat liver at 0.3 uM (not determined)

`Cn1c(=O)n(Cc2ccccc2)c(=O)c2cc(-c3ccccc3)cnc21` was tested, and the IC50 was greater than 10 µM.

Molecular target: Phosphodiesterase 4 (Rattus norvegicus) (UniProt P14270+P14646+P14644+P54748)
Assay: In vitro inhibitory activity against phosphodiesterase 4 from rat liver at concentration of 3 uM

Going from `CCOc1ccc(-c2ccnc3c2c(=O)n(Cc2ccccc2)c(=O)n3C)cc1` to `Cn1c(=O)n(Cc2ccccc2)c(=O)c2c(-c3ccccc3F)ccnc21`, the Inhibition rises from 35.1% to 69.7%.

First: Cn1c(=O)n(Cc2ccccc2)c(=O)c2cc(-c3ccc(Cl)cc3)cnc21
Second: Cn1c(=O)n(Cc2ccccc2)c(=O)c2cc(-c3ccc(F)cc3)cnc21
The Inhibition of the first is higher: 47.8% for the first, 44% for the second.

Compared with `CCOC(=O)c1cnc2c(c1)c(=O)n(Cc1ccccc1)c(=O)n2C`, `CCCOCc1cnc2c(c1)c(=O)n(Cc1ccccc1)c(=O)n2C` is higher in Inhibition: 43% for the first, 46.7% for the second.

Compared with `Cn1c(=O)n(Cc2ccccc2)c(=O)c2cc(Cc3ccccc3)cnc21`, `Cn1c(=O)n(Cc2ccccc2)c(=O)c2cc(COCc3ccccc3)cnc21` is lower in Inhibition: 68.2% for the first, 49.8% for the second.

First: Cn1c(=O)n(Cc2ccccc2)c(=O)c2c(Cc3ccccc3)ccnc21
Second: Cn1c(=O)n(Cc2ccccc2)c(=O)c2cc(-c3ccccc3)cnc21
The Inhibition of the first is higher: 57.1% for the first, 31.3% for the second.

Compared with `Cn1c(=O)n(Cc2ccccc2)c(=O)c2cc(-c3ccccc3F)cnc21`, `Cn1c(=O)n(Cc2ccccc2)c(=O)c2cc(-c3ccccc3C(F)(F)F)cnc21` is higher in Inhibition: 46.4% for the first, 53.7% for the second.

Going from `Cn1c(=O)n(Cc2ccccc2)c(=O)c2cc(-c3cccc(C(F)(F)F)c3)cnc21` to `Cn1c(=O)n(Cc2ccccc2)c(=O)c2cc(-c3cccc([N+](=O)[O-])c3)cnc21`, the Inhibition falls from 37.6% to 23.5%.

With `Cn1c(=O)n(Cc2ccccc2)c(=O)c2cc(COc3ccccc3)cnc21` the Inhibition was 45.1%.
